Experimental data taken from ChEMBL document CHEMBL1201862, “PubChem BioAssay data set” (2004).
Active and inactive are the calls of the source.

Columns and labels:
[1] = target: T1, Kappa-type opioid receptor (Homo sapiens, UniProt P41145); format: functional
[2] = insulin promoter down-regulators in MIN6 cells, imaging, high-content screening, mouse beta cells (AID 1628); format: functional
Beta-galactosidase = Beta-galactosidase (Escherichia coli, UniProt Q8VNN2); format: functional
[3] = system: Streptococcus sp. 'group A'; test: growth inhibition of control SK(-) GAS strain, dose response, counter-screen for streptokinase expression inhibitor project, luminescence, kanamycin, BacTiterGlo, confirmation (AID 1900); format: functional, organism-based
[4] = control 3'UTR Renilla luciferase suppression, dose response, counter-screen for Shn3 inhibitor project, cell-based, Clone20-Shn3RL, cherry-picked (AID 624133); format: functional
Mu-type opioid receptor = Mu-type opioid receptor (Homo sapiens, UniProt P35372); test: HTS Image-Based Screen for Agonists of the MOR Receptor. [Related pubchem assays (depositor defined):AID1777, AID1785, AID1786, AID2133]; format: functional;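 further: imaging of beta-arrestin GFP recruitment into spots after receptor activation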
[5] = M. tuberculosis H37Rv growth inhibitors, H37Rv strain (AID 1626); format: functional
[6] = Shn3 3'UTR reporter inhibitors, dose response, cell-based, Clone20 osteoblasts, firefly luciferase, cherry-picked (AID 624132); format: functional;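 further: firefly luciferase luminescence from reporter carrying the Shn3 3'UTR in osteoblasts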
INS1 = test: beta cell apoptosis inhibitors, cytokine rescue, dose response, luminescence, retest (AID 449756); format: functional, cell-based; conditions: Rattus norvegicus;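 further: cell death triggered by IL-1 beta plus TNF-alpha plus IFN-gamma mixture; protective hits raise ATP signal compared with cytokine alone wells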
Streptococcus = test: Group A Streptococcus viability loss, dose response, counter-screen for streptokinase expression inhibitor project, luminescence, BacTiterGlo (AID 1915); format: functional, organism-based;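 further: potency for reduction of bacterial viability or growth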
[7] = target: T2, Delta-type opioid receptor (Homo sapiens, UniProt P41143); test: HTS Image-Based Screen for Agonists of the DOR Receptor. [Related pubchem assays (depositor defined):AID1777, AID1786, AID2133]; format: functional
[8] = target: T1, Kappa-type opioid receptor; format: functional; remark: listed apart in the source
[9] = HepG2 cell cytotoxicity, dose response, cytotoxicity control for Shn3 inhibitor project, CellTiter-Glo, cherry-picked (AID 624134); format: functional, cell-based
[10] = cytotoxicity in MIN6 insulinoma cells, dose response, cytotoxicity control, cell-based, mouse insulinoma (AID 2122); format: functional;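 further: confirmatory high-throughput counterscreen run to flag cytotoxic compounds; mouse MIN-6 beta cells carrying an insulin promoter eGFP reporter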
[11] = target: T2, Delta-type opioid receptor; test: HTS Image-Based Screen for Antagonists of the DOR Receptor. [Related pubchem assays (depositor defined):AID1777, AID1785, AID1786, AID2133]; format: functional
[12] = target: T3, Tyrosine-protein phosphatase non-receptor type 22 (Homo sapiens, UniProt Q9Y2R2); format: functional
T3 sequence (Q9Y2R2 whole entry): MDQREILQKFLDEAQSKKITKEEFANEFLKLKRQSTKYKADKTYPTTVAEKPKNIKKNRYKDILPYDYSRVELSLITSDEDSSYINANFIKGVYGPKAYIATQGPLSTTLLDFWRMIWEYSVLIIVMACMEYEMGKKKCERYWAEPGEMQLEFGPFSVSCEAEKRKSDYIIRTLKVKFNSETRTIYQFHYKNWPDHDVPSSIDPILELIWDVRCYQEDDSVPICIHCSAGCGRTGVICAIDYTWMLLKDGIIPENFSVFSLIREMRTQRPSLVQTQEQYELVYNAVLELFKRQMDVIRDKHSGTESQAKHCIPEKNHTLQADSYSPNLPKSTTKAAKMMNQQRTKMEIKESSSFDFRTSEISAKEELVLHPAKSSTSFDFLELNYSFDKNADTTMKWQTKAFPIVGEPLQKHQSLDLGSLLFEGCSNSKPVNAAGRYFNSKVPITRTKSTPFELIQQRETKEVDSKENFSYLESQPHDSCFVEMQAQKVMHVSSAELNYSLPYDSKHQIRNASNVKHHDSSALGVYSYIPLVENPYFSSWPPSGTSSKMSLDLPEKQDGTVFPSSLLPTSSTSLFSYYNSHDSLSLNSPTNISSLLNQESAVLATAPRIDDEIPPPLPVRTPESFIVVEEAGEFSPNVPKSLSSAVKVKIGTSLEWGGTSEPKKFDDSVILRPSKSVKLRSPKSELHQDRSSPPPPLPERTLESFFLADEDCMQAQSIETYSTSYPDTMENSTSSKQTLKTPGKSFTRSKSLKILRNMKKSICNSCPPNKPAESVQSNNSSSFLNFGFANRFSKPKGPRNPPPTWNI

[13] = target: T4, Small ubiquitin-related modifier 1 (Homo sapiens, UniProt P63165); test: inhibitors of SUMO1 partner interactions, dose response, biochemical, FRET (AID 624383); format: functional; conditions: read-out: IC50_Mean
[14] = target: T4, Small ubiquitin-related modifier 1; test: inhibitors of SUMO1 peptide binding, dose response, biochemical, fluorescence polarization, uHTS hits (AID 624382); format: functional; conditions: read-out: IC50_Mean
[15] = target: T3, Tyrosine-protein phosphatase non-receptor type 22; format: functional; remark: listed apart in the source
[16] = target: T5, Tyrosine-protein phosphatase non-receptor type 7 (Homo sapiens, UniProt P35236); format: functional
T5 sequence (P35236 whole entry): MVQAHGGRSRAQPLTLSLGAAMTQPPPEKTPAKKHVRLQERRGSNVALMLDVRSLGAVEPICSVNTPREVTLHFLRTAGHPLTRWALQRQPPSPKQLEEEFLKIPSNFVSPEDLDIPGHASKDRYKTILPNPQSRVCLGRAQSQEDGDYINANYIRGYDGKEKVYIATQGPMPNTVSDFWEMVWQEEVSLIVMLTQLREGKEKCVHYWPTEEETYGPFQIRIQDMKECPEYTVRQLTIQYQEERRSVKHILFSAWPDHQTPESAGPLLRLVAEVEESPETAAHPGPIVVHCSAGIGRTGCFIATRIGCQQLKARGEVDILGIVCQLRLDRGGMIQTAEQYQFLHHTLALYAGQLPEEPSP

[17] = target: Polyadenylate-binding protein 1 (Homo sapiens, UniProt P11940); test: PABP inhibition in translation initiation, SAR follow-up (AID 435018); format: functional
[18] = target: Eukaryotic translation initiation factor 4H (Homo sapiens, UniProt Q15056); test: eIF4H inhibition in translation initiation, SAR follow-up (AID 435011); format: functional
BJ [19] = test: cells; format: functional, cell-based; conditions: Homo sapiens
[20] = cytotoxicity toward DRD oncogenic fibroblasts, dose response, cell-based, non-viral oncogenic, luminescence (AID 1934); format: functional; conditions: Homo sapiens
[21] = target: Neurotensin receptor type 1 (Homo sapiens, UniProt P30989); format: functional;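 further: Image-based confirmatory dose-response assay measuring agonist activity at NTR1; NTR1-expressing U2OS osteosarcoma cells imaged for beta-arrestin GFP spot formation; agonist potency where compounds increase beta-arrestin recruitment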
BJ [22] = test: cytotoxicity toward BJ-TERT-LT-ST fibroblasts, dose response, cell-based, RAS-independent, luminescence (AID 1935); format: functional; conditions: Homo sapiens;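 further: BJ fibroblasts immortalized with TERT plus LT and ST oncogenes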
Vero [23] = test: cells; format: functional, cell-based; conditions: Chlorocebus sabaeus
Vero [24] = test: cells; format: functional; conditions: Chlorocebus sabaeus
BJ [25] = test: cytotoxicity toward BJ-TERT fibroblasts, dose response, cell-based, RAS-independent, luminescence (AID 1933); format: functional; conditions: Homo sapiens
Hexokinase HKDC1 = target: T6, Hexokinase HKDC1 (Homo sapiens, UniProt Q2TB90); test: HKDC1 hexokinase inhibitors, dose response, biochemical, W721R variant (AID 504729); format: functional
T6 sequence (Q2TB90 whole entry): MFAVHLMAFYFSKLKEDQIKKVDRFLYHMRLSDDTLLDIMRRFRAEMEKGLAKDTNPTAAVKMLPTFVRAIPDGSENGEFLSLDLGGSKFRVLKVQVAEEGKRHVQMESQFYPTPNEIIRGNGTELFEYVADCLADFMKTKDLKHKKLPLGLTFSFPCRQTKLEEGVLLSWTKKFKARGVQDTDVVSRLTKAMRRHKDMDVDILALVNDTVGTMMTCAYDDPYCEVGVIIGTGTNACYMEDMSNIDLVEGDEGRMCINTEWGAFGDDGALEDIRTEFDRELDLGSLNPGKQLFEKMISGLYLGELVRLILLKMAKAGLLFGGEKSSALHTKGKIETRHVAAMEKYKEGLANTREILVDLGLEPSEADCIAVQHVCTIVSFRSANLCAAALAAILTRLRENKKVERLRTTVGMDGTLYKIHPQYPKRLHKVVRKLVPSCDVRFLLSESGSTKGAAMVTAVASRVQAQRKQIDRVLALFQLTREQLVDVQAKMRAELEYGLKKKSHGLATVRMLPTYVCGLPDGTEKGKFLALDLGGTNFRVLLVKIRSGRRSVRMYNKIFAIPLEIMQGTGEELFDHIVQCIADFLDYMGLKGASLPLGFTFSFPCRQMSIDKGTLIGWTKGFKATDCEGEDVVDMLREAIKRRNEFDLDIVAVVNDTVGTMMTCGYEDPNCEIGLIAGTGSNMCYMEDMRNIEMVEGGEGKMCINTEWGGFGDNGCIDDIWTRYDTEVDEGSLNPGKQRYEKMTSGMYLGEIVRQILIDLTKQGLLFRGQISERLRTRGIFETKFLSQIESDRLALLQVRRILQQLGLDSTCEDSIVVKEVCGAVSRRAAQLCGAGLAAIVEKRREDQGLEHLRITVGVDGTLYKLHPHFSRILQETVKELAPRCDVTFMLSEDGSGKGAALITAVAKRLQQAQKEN

SUMO E1/E2 = SUMO E1/E2 (Homo sapiens, UniProt P63279+Q9UBE0+Q9UBT2); test: SAR analysis of SUMOylation using HTRF in an in-Vitro dose response assay. [Related pubchem assays (depositor defined):AID2006, AID2011, AID2018, AID2069, AID2658]; format: functional
[26] = target: G-protein coupled receptor 55 (Homo sapiens, UniProt Q9Y2T6); test: GPR55 agonists via beta-arrestin recruitment, primary screen, imaging, U2OS cells, beta-arrestin-GFP redistribution (AID 1961); format: functional
G-protein coupled receptor 55, sequence (Q9Y2T6 whole entry): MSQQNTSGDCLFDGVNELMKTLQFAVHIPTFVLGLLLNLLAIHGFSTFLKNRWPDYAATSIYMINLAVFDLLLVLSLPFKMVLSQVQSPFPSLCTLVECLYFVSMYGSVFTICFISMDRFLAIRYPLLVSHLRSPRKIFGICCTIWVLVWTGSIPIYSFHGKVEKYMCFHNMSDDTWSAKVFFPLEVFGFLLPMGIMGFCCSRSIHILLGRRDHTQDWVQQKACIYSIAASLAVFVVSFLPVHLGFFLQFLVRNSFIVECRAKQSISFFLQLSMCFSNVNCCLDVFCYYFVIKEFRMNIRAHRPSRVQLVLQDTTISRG

T2 sequence (P41143 whole entry): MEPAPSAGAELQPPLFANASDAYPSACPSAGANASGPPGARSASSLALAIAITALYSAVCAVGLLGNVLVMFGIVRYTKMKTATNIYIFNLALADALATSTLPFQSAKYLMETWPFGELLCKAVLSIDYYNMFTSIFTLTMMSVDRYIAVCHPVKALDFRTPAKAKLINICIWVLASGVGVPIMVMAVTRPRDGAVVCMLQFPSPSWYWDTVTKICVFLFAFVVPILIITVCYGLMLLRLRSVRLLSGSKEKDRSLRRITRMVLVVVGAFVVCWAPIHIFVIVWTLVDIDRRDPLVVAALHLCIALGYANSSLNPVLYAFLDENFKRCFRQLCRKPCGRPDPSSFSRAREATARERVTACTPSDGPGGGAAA
Polyadenylate-binding protein 1, sequence (P11940 whole entry): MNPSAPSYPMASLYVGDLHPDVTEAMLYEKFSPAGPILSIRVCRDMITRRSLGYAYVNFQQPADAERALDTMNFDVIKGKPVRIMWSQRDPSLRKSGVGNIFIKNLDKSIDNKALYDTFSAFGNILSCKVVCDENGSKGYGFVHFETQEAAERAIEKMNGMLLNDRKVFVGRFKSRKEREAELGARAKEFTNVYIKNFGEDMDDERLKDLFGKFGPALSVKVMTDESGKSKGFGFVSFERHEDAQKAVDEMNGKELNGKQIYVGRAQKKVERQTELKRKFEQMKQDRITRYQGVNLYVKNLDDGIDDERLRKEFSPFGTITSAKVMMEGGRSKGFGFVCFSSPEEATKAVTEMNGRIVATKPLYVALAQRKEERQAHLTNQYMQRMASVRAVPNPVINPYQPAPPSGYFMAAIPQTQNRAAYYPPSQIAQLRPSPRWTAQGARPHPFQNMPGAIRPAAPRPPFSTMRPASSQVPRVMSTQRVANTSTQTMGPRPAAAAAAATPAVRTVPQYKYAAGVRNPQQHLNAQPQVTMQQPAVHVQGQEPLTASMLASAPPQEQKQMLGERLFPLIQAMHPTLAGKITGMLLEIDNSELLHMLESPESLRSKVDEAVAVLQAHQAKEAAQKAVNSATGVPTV
T4 sequence (P63165 whole entry): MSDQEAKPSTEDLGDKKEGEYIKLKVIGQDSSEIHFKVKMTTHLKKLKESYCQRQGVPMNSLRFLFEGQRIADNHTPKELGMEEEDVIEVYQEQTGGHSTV
T1 sequence (P41145 whole entry): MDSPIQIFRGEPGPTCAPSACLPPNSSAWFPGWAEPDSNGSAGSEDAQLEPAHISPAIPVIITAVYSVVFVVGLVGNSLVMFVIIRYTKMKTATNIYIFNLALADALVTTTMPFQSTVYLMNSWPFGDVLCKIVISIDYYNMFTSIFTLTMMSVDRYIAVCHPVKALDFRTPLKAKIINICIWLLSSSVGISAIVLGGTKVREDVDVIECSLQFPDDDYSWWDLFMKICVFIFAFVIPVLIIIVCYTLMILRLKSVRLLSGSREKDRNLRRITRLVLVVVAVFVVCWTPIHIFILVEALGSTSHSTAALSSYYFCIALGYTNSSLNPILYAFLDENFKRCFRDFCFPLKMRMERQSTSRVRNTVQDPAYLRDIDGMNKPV
Beta-galactosidase, sequence (Q8VNN2 whole entry): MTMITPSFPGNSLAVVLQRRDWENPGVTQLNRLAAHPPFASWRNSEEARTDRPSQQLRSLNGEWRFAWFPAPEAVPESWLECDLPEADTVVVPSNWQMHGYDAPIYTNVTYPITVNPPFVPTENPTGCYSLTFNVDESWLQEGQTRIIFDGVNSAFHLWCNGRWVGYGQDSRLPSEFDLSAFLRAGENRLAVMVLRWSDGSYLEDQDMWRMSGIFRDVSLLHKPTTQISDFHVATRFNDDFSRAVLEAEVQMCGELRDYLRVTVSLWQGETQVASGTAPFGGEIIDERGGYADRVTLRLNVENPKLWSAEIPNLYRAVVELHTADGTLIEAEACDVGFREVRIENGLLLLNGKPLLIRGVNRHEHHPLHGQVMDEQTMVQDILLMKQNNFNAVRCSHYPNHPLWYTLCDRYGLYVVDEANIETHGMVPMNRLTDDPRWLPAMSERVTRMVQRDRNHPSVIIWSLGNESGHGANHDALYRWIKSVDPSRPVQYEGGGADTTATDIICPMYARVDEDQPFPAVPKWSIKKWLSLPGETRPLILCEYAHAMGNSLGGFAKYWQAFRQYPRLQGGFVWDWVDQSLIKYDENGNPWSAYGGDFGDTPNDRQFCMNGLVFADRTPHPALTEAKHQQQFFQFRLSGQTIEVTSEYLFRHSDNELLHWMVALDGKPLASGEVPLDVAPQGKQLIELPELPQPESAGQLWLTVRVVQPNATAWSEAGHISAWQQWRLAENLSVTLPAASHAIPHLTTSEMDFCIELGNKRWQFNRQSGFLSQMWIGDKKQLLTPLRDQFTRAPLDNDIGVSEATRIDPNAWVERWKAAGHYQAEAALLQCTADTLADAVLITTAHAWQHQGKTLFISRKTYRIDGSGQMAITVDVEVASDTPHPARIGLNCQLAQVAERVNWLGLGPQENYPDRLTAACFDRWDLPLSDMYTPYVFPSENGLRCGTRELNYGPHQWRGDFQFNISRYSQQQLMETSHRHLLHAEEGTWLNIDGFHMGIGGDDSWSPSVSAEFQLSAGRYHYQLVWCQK
Mu-type opioid receptor, sequence (P35372 whole entry): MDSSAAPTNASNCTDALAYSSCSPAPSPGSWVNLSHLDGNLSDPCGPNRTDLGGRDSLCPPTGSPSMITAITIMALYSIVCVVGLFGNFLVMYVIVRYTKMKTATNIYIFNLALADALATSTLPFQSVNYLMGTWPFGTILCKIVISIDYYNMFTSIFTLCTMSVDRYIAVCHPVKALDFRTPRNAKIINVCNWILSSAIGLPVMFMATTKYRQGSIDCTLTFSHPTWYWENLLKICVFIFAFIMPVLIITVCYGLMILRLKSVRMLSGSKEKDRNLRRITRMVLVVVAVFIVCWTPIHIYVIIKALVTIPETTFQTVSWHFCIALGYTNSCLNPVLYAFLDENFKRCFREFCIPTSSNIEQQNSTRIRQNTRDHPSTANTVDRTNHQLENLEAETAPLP
SUMO E1/E2, sequence (Q9UBE0 whole entry): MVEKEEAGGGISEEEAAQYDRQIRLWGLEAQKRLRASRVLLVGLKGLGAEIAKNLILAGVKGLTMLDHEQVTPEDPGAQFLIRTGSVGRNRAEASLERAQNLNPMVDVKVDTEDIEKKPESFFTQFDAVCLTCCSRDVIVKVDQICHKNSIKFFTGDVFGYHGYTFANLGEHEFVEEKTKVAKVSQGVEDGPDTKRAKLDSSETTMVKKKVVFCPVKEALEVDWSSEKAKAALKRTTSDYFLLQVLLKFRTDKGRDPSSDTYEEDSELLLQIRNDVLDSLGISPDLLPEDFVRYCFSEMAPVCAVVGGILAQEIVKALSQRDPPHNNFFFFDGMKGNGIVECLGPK
SUMO E1/E2, sequence (Q9UBT2 whole entry): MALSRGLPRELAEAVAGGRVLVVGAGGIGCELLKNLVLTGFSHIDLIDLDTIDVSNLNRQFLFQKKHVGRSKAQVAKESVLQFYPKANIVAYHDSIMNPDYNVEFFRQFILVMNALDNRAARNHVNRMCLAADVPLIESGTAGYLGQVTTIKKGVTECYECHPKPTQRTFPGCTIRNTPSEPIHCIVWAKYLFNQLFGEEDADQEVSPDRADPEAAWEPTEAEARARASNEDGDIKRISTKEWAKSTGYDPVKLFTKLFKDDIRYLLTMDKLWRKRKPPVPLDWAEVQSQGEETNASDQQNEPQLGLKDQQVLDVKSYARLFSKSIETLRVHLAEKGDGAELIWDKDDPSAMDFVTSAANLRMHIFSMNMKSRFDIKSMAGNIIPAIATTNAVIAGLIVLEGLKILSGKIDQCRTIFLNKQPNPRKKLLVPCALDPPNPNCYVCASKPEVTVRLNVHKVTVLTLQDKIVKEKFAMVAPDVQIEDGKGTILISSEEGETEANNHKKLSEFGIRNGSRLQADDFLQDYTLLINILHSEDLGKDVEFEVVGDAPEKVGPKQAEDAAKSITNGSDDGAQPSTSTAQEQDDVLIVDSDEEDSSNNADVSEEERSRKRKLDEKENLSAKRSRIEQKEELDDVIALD
SUMO E1/E2, sequence (P63279 whole entry): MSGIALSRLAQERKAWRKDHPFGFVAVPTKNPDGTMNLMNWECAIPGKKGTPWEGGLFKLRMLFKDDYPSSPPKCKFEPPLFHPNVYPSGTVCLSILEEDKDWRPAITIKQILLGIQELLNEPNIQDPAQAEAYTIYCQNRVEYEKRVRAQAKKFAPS

In the case of `CCc1nnc(NC(=O)c2cccc(C(=O)Nc3nnc(CC)s3)n2)s1`, the IC50 [1] is reported as > 32 µM, the IC50 [2] is reported as 0.666 µM (active) and the EC50 (Beta-galactosidase) is reported as > 31.5 µM (inactive). For the same molecule, the EC50 [3] was 0.829 µM (active), the AC50 [4] was 0.573 µM (active) and the EC50 (Mu-type opioid receptor) was > 32 µM (inactive). For the same molecule, the IC50 [5] was 100 µM (active), the AC50 [6] was 1.45 µM (active) and the AC50 (INS1) was 0.678 µM (active). The EC50 (Streptococcus) was 3.5 µM (active), the EC50 [7] was > 32 µM (inactive) and the IC50 [8] was 5 µM (inactive). For the same molecule, the AC50 [9] was 5.56 µM (active), the IC50 [10] was 0.568 µM (active) and the IC50 [11] was > 32 µM (inactive).

For `CC(=O)c1ccc2c(c1)C1C(Cl)C(Sc3ccccc3[N+](=O)[O-])CC1C(C(=O)O)N2` (centres undefined), the IC50 [12] was 32 µM (active), the IC50 [13] was 13.2 µM (active) and the IC50 [14] was > 66.6 µM (inactive). The IC50 [15] was 57.9 µM (active) and the IC50 [16] was 58.2 µM (active).

With `O=C(CSc1ccc(-c2ccco2)nn1)N1CCCCCC1` the IC50 [17] was > 100 µM (inactive) and the IC50 [18] was 69.4 µM (active).

For `CCN(CC)c1ccc(C=C2C(=O)NC(=S)NC2=O)cc1`, the EC50 (BJ [19]) was 15.9 µM (active), the EC50 [20] was 10.8 µM (active) and the EC50 [21] was 3.91 µM (active). The EC50 (BJ [22]) was > 75 µM (inconclusive), the IC50 (Vero [23]) was > 25 µM (active) and the CC50 (Vero [24]) was 13.9 µM (active). For the same molecule, the EC50 (BJ [25]) was 13.5 µM (active).

For `Nc1c(Br)cc2c3c(cccc13)-c1ccccc1-2`, the IC50 (Hexokinase HKDC1) was 4.58 µM (active).

For `Clc1ccc2c(c1)C1C=CCC1C(c1ccccc1)N2` (centres undefined), the IC50 (SUMO E1/E2) was > 100 µM (inactive).

In the case of `COc1ccc([N+](=O)[O-])cc1NC(=O)COC(=O)c1ccc(NC(N)=O)cc1`, the IC50 [17] is reported as > 100 µM (inactive) and the IC50 [18] is reported as > 100 µM (inactive).

With `COc1ccc(-c2n(CC(=O)OC3CC(C)CCC3C(C)C)c3ccccc3[n+]2C)cc1` (centres undefined) the EC50 [26] was > 32 µM (inactive).
